Results taken from US20250144227A1, “C-16 MODIFIED TRIOXACARCINS, ANTIBODY DRUG CONJUGATES, AND USES THEREOF” (President and Fellows of Harvard College, priority 2021, published 2025).
Read-outs that look alike come from different tables or passages of the source.

Test system: H460 cells
Experiment: Cell proliferation assay (resazurin, CellTiter-Blue), H460 cells
Type: cell-based
Conditions: for GI50: Homo sapiens; for Effect of the C16 modification on potency (in words): comment on the data of Table 2 (H460 cells)
Description: Cell Culture: All cell-culture work was conducted in a class II biological safety cabinet. H460 cells (P2-P4, American Type Culture Collection) were maintained in RPMI-1640 medium supplemented with 10% fetal bovine serum (FBS). HL-60 cells (P2-P4, American Type Cuture Collection) were maintained in RPMI-1640 medium supplemented with 10% FBS. MES-SA/Dx-5 cells (P2-P4, European Collection of Authenticated Cell Cultures) were maintained in McCoy's 5A medium supplemented with 10% FBS.
Cell Proliferation Assay: H460 and MES-SA/Dx-5 cells were grown to approximately 80% confluence, and then were trpysinized, collected, and pelleted by centrifugation (10 min at 183 x g, 24° C.), and HL-60 cells were grown to confluence and directly pelleted by centrifugation (10 min at 183 × g, 24° C.). The supernatant was discarded and the cell pellet was resuspended in 10 mL of fresh medium. A sample was diluted 10-fold in fresh medium, and the concentration of cells was determined using a hemacytometer. The cell suspension was diluted to a concentration of 3000 cells/100 μL. The wells of a pre-sterilized 96-well plate were charged with 100 μL per well of the diluted cellular suspension. The plate was incubated for 24 h at 37° C. (5% CO2).
Stock solutions of each compound in DMSO were diluted with the appropriate media to 100 nM solutions (1% DMSO), which were then serially diluted with the appropriate media, and 100-uL aliquots of the resulting solutions were added to the wells containing adhered cells to achieve final concentrations of 0.39 nM to 50 nM. After incubating at 37° C. for 72 h (5% CO2), 20 μL of resazurin solution (Promega CellTiter-Blue® Cell Viability Assay) was added to each well. After incubating at 37° C. for 2.0 h (5% CO2), the fluorescence (544 nm excitation/590 nm emission) was recorded using a microplate reader (SpectraMax PLUS384) as a measure of viable cells.
Percent growth inhibition was calculated for each well, based upon the following formula: Percent growth inhibition=100×(S−B0)/(Bt−B0) where S is the sample fluorescence, Bt is the average fluorescence of an untreated population of cells at the completion of the assay, and B0 is the average fluorescence of an untreated population of cells at the beginning of the assay.
Each compound was assayed at eight separate concentrations per experiment. The percent inhibition at each concentration was plotted against log (concentration), and a curve fit was generated using the XLfit4 plugin (IDBS Software) running in Excel (Microsoft). GI50 values were computed to reflect the concentrations at which the resulting curves pass through 50% inhibition.

[1] = NCI-H460, H460 cells, 72 h incubation, read-out: GI50

Structure (SMILES) | GI50 [1] [nM] | Effect of the C16 modification on potency (in words) | GI50 (NCI-H460, 72 h) [nM]
COc1c2c(c(O)c3c4c(c(C)cc13)C1O[C@]3(CN)O[C@H]1[C@@](OC)(O4)[C@@]31CO1)C(=O)CCC2 (stereo partly drawn) [compound 26, (2R,2′R,3a′R,13a′R)-2′-(Aminomethyl)-12′-hydroxy-7′,13a′-dimethoxy-5′-methyl-3a′, 4′,8′,9′,10′, 13a′-hexahydro-2′H, 11′H-spiro[oxirane-2,1′-[2,4]epoxyfuro[3,2-b]naphtho[2,3-h]chromen]-11′-one] | 10 | good tolerance | –
COc1c2c(c(O)c3c4c(c(C)cc13)C1OC3(CO[C@@H]5O[C@H](COC(C)=O)[C@@H](OC(C)=O)[C@H](OC(C)=O)[C@H]5OC(C)=O)OC1[C@@](OC)(O4)[C@@]31CO1)C(=O)CCC2 (stereo partly drawn) [compound 28, (2R,3R,4S,5R,6R)-2-(Acetoxymethyl)-6-(((2R,13a′R)-12′-hydroxy-7′,13a′-dimethoxy-5′-methyl-11′-oxo-3a′,8′,9′,10′,11′,13a′-hexahydro-2′H,4′H-spiro [oxirane-2,1′-[2,4]epoxyfuro[3,2-b]naphtho[2,3-h]chromen]-2′-yl)methoxy) tetrahydro-2H-pyran-3,4,5-triyl triacetate] | – | poorly tolerated | > 100
COc1c2c(c(O)c3c4c(c(C)cc13)C1OC3(COCc5cn(Cc6ccccc6)nn5)OC1[C@@](OC)(O4)[C@@]31CO1)C(=O)CCC2 (stereo partly drawn) [compound 27, (2R,2′R,3a′R,13a′R)-2′-(((1-Benzyl-1H-1,2,3-triazol-4-yl)methoxy)methyl)-12′-hydroxy-7′,13a′-dimethoxy-5′-methyl-3a′,4′,8′,9′, 10′, 13a′-hexahydro-2′H,11′H-spiro [oxirane-2, 1′-[2,4]epoxyfuro[3,2-b]naphtho[2.3-h]chromen]-11′-one] | – | ablates potency | > 100
COc1c2c(c(O)c3c4c(c(C)cc13)C1OC3(COC5CC(C)(O)C(OC(C)=O)C(C)O5)OC1[C@@](OC)(O4)[C@@]31CO1)C(=O)CCC2 (stereo partly drawn) [compound 30, (25,3S,4R,6S)-4-Hydroxy-6-(((2R,13a′R)-12′-hydroxy-7′,13a′-dimethoxy-5′-methyl-11′-oxo-3a′,8′,9′,10′,11′,13a′-hexahydro-2′H,4′H-spiro [oxirane-2,1′-[2,4]epoxyfuro[3,2-b]naphtho[2,3-h]chromen]-2′-yl)methoxy)-2,4-dimethyltetrahydro-2H-pyran-3-yl acetate] | – | well tolerated | 20
COc1c2c(c(O)c3c4c(c(C)cc13)C1OC3(CSC(C)=O)OC1[C@@](OC)(O4)[C@@]31CO1)C(=O)CCC2 (stereo partly drawn) [compound 33, S-(((25,2'S,3a′R,13a′R)-12′-hydroxy-7′,13a′-dimethoxy-5′-methyl-11′-oxo-3a′,8′,9′,10′,11′,13a′-hexahydro-2′H,4′H-spiro [oxirane-2,1′-[2,4]epoxyfuro[3,2-b]naphtho[2,3-h]chromen]-2′-yl)methyl)ethanethioate] | – | lack of activity | 100
COc1c2c(c(O)c3c4c(c(C)cc13)C1O[C@]3(COCc5ccccc5)O[C@H]1[C@@](OC)(O4)[C@@]31CO1)C(=O)CCC2 (stereo partly drawn) [compound 18, (2R,2′R,3a′R, 13a′R)-2′-((Benzyloxy)methyl)-12′-hydroxy-7′,13a′-dimethoxy-5′-methyl-3a′,4′,8′,9′,10′,13a′-hexahydro-2′H, 11′H-spiro [oxirane-2,1′-[2,4]epoxyfuro[3,2-b]naphtho[2,3-h]chromen]-11′-one] | > 100 | – | –
COc1c2c(c(O)c3c4c(c(C)cc13)C1OC3(COCC5OC(CO)C(O)C(O)C5O)OC1[C@@](OC)(O4)[C@@]31CO1)C(=O)CCC2 (stereo partly drawn) [compound 29, (2R,13a′R)-12′-Hydroxy-7′,13a′-dimethoxy-5′-methyl-2′-((((2R,3R,4S,5S,6R)-3,4,5-trihydroxy-6-(hydroxymethyl)tetrahydro-2H-pyran-2-yl)oxy)methyl)-3a′ 4′,8′,9′, 10′,13a′-hexahydro-2′H. 11′H-spiro [oxirane-2,1′-[2,4]epoxyfuro[3,2-b]naphtho[2,3-h]chromen]-11′-one] | – | poorly tolerated | –
COc1c2c(c(O)c3c4c(c(C)cc13)[C@@H]1O[C@]3(COP(=O)(O)O)O[C@@H]1[C@@](OC)(O4)[C@@]31CO1)C(=O)CCC2 [compound 35, ((2R,2′R,3a'S,4'S,13a′R)-12′-hydroxy-7′,13a′-dimethoxy-5′-methyl-11′-oxo-3a′,8′,9′,10′,11′,13a′-hexahydro-2′H,4′H-spiro [oxirane-2,1′-[2,4]epoxyfuro[3,2-b]naphtho[2,3-h]chromen]-2′-yl)methyl dihydrogen phosphate] | – | good tolerance | 35
COc1c2c(c(O)c3c4c(c(C)cc13)C1OC3(COCc5ccccc5)OC1[C@@](O)(O4)[C@@]31CO1)C(=O)CCC2 (stereo partly drawn) [compound 17, (2S,2′R,3a′R, 13a′R)-2′-((Benzyloxy)methyl)-12′, 13a′-dihydroxy-7′-methoxy-5′-methyl-3a′ 4′,8′,9′,10′,13a′-hexahydro-2′H,11′H-spiro [oxirane-2,1′-[2,4]epoxyfuro[3,2-b]naphtho[2,3-h]chromen]-11′-one] | > 100 | – | –
COc1c2c(c(O)c3c4c(c(C)cc13)C1OC3(CBr)OC1[C@@](OC)(O4)[C@@]31CO1)C(=O)CCC2 (stereo partly drawn) [compound 32, (2S,2′S,3a′R,13a′R)-2′-(Bromomethyl)-12′-hydroxy-7′,13a′-dimethoxy-5′-methyl-3a′,4′,8′9′,10′,13a′-hexahydro-2′H,11′H-spiro [oxirane-2,1′-[2,4]epoxyfuro[3,2-b]naphtho[2,3-h]chromen]-11′-one] | 20 | good tolerance | –
COc1c2c(c(O)c3c4c(c(C)cc13)C1O[C@]3(CN=[N+]=[N-])O[C@H]1[C@@](OC)(O4)[C@@]31CO1)C(=O)CCC2 (stereo partly drawn) [compound 25, (2R,2′R,3a′R,13a′R)-2′-(Azidomethyl)-12′-hydroxy-7′,13a′-dimethoxy-5′-methyl-3a′, 4′,8′,9′,10′,13a′-hexahydro-2′H,11′H-spiro[oxirane-2,1′-[2,4]epoxyfuro[3,2-b]naphtho[2,3-h]chromen]-11′-one] | – | good tolerance | 33
CCCOCC12OC3c4c(C)cc5c(OC)c6c(c(O)c5c4O[C@](OC)(C3O1)[C@@]21CO1)C(=O)CCC6 (stereo partly drawn) [compound 22, (2R,2′R,3a′R,13a′R)-12′-Hydroxy-7′,13a′-dimethoxy-5′-methyl-2′-(propoxymethyl)-3a′, 4′,8′,9′,10′,13a′-hexahydro-2′H,11′H-spiro[oxirane-2,1′-[2.4]epoxyfuro[3,2-b]naphtho[2,3-h]chromen]-11′-one] | 22 | – | –
COc1c2c(c(O)c3c4c(c(C)cc13)C1OC3(CO)OC1[C@@](OC)(O4)[C@@]31CO1)C(=O)CCC2 (stereo partly drawn) [compound 19, (2R.2′R,3a′R, 13a′R)-12′-Hydroxy-2′-(hydroxymethyl)-7′,13a′-dimethoxy-5′-methyl-3a′, 4′,8′,9′,10′,13a′-hexahydro-2′H, 11′H-spiro [oxirane-2,1′-[2,4]epoxyfuro[3,2-b]naphtho[2,3-h]chromen]-11′-one] | – | – | 5.5
COc1c2c(c(O)c3c4c(c(C)cc13)C1O[C@]3(CO)O[C@H]1[C@@](OC)(O4)[C@@]3(O)CBr)C(=O)CCC2 (stereo partly drawn) [compound 21, (1R,2R,3aR,13aR)-1-(bromomethyl)-1,12-dihydroxy-2-(hydroxymethyl)-7,13a-dimethoxy-5-methyl-1,2,3a,4,8,9,10,13a-octahydro-11H-2,4-epoxyfuro[3,2-b]naphtho[2,3-h]chromen-11-one] | 8 | – | –
C#CCOCC12OC3c4c(C)cc5c(OC)c6c(c(O)c5c4O[C@](OC)(C3O1)[C@@]21CO1)C(=O)CCC6 (stereo partly drawn) [compound 24, (2R,2′R,3a′R,13a′R)-12′-Hydroxy-7′,13a′-dimethoxy-5′-methyl-2′-((prop-2-yn-1-yloxy)methyl)-3a′,4′,8′,9′,10′,13a′-hexahydro-2′H,11′H-spiro[oxirane-2,1′-[2,4]epoxyfuro[3,2-b]naphtho[2.3-h]chromen]-11′-one] | – | – | 14
C=CCOCC12OC3c4c(C)cc5c(OC)c6c(c(O)c5c4O[C@](OC)(C3O1)[C@@]21CO1)C(=O)CCC6 (stereo partly drawn) [compound 23, (2R,2′R,3a′R,13a′R)-2′-((Allyloxy)methyl)-12′-hydroxy-7′,13a′-dimethoxy-5′-methyl-3a′,4′,8′,9′,10′,13a′-hexahydro-2′H, 11′H-spiro[oxirane-2,1′-[2,4]epoxyfuro[3,2-b]naphtho[2.3-h]chromen]-11′-one] | 14 | – | –
